Patent US20240316027A1, “USE OF MARAVIROC IN PREPARATION OF DRUGS FOR TREATMENT OF MUSCLE DEGENERATIVE DISEASES” (Center for Neuromusculoskeletal Restorative Medicine Limited, priority 2023, published 2024)

Key:
dKO mice = test: Maraviroc treatment of dystrophic dKO (YY1; mdx) and Ctrl mice, DMD mouse model; assay type: in vivo; details: for voluntary exercise (running distance on exercise wheels): recorded daily for one week, FIG. 6
From the text: The research object of this invention is based on a mouse model of human Duchenne muscular dystrophy (DMD), a congenital mutation in the muscular dystrophy protein leading to spontaneous periodic muscle damage and repair. Chronic inflammation and fibrosis are typical hallmarks of DMD and may contribute to impaired skeletal muscle regeneration. […] These YY1; mdx mice (so called double knock out dKO) display decreased body and muscle weight, severe inflammation and fibrosis, and reduced lifespan. As illustrated in FIGS. 1A-1D, the body weights are continuously monitored and measured at 3M, 5M and 7M intervals and the dKO mice show continuous weight loss compared to Ctrl mice (see FIG. 1A) as time progresses. Furthermore, the reduction in muscle weight (tibialis anterior) and thickness (diaphragm) is also observed over time in contrast to Ctrl mice (see FIG. 1B). […] Meanwhile, excessive inflammation is observed on the dKO muscles as shown by the amount of immune cells infiltration in the interstitial area (see FIG. 1C), along with aggravated fibrosis (detected by Masson's Trichrome staining, see FIG. 1D).
To test the therapeutic effect of Maraviroc on the dystrophic muscles, the above-described Ctrl and dKO mice are treated with dimethyl sulfoxide (DMSO) or Maraviroc respectively.
Next, the muscle morphology is evaluated on the above-treated four groups of mice.
Next it is examined if the treatment improves muscle functions by testing the muscle performance in exercises. Both endurance and voluntary exercises are employed. For endurance exercise, mice are first placed in a treadmill machine, where the bottom of the running track is equipped with an electric shock device to force the mice to continue running as illustrated in FIG. 5. The initial speed is set to 10 cm/s and increased by 5 cm/s every two minutes. By recording the running distance until the mice are exhausted, their endurance strength is determined. […] For voluntary exercise, the mice are placed in cages equipped with exercise wheels, which are connected to counters that accurately record the distance travelled by the mice on the wheels, as illustrated in FIG. 6. The mice are continuously housed in the cages for one week, and their exercise distance on the wheels is recorded daily.

[1] = tested on: aged mice with sarcopenia; test: Maraviroc treatment of aged mice with sarcopenia; assay type: in vivo, mouse; details: 16-month-old mice, 2.5 mg/kg intraperitoneally twice a week for 6 months
Protocol: Next, to further illustrate the possible application for treating other muscle degenerative diseases, the effectiveness of Maraviroc is tested in aged mice with sarcopenia. 3 pairs of 16-month-old mice are intraperitoneally injected with vehicle (5% DMSO) or Maraviroc (2.5 mg/kg) twice a week for 6 months, as shown in FIG. 7. […] Overall, the Maraviroc treatment delays muscle aging and rejuvenates the mice.

[2] = Phase IIa study; cited from earlier work
[3] = dKO mice, 60 ug in 5% DMSO intraperitoneally every two days for one month, FIG. 2

## Cc1nnc(C(C)C)n1[C@@H]1C[C@H]2CC[C@@H](C1)N2CC[C@H](NC(=O)C1CCC(F)(F)CC1)c1ccccc1 [Maraviroc]
dKO mice; Ctrl and dKO muscles, FIG. 3
  muscle morphology, immune cell infiltration and inflammation (H&E staining of TA muscles): improved morphology with reduced immune cell infiltration and inflammation
dKO mice; Ctrl mice, 60 ug intraperitoneally every two days for one month, FIG. 2
  effect on body weight of Ctrl mice: no obvious effect
dKO mice; Ctrl mice
  voluntary exercise (running distance on exercise wheels): high level of voluntary exercise
dKO mice; dKO mice, versus dKO mice treated with DMSO, FIG. 5
  endurance strength (treadmill running distance until exhausted): significantly higher
dKO mice; [3]
  body weight: significantly restored
  muscle weight: significantly restored
dKO mice; dKO mice, FIG. 4
  muscle fibrosis (Masson's Trichrome staining): significantly alleviate
dKO mice; dKO mice
  voluntary exercise (running distance on exercise wheels): consistent increase in running distance over time
[1]; FIG. 8
  TA muscle weight: restored
  fiber size: increased
  inflammation: attenuated
  muscle morphology (H&E staining): remarkable improvement
[1]; FIG. 9
  muscle functions (grip force and treadmill running): restored
[1]; FIG. 10
  number of FAPs and macrophages: reduced number
  number of MuSCs: increased number
[2]
  efficacy in the treatment of RA: no efficacy
